As a reminder, the GI50 is the concentration that inhibits growth by half. For orientation: TGI means the concentration giving total growth inhibition. Higher therefore signals less potent growth arrest.

The text below walks through data of PubChem BioAssay (NCI).

Some test systems named below: U251 CNS; RXF 393 renal; NCI/ADR-RES ovarian; SF-295 CNS; SF-539 CNS; LOX IMVI melanoma; UACC-62 melanoma; HS 578T breast; IGROV1 ovarian; MALME-3M melanoma.
Common to all, as to experiment: DTP human tumour cell line panel, 48 h

Molecules are shown by their SMILES. “And” between values parts separate entries of the source, which are not always exact repeats. Identical values can stand only once.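 Cultured in 96-well plates, cells were exposed to test compound for 48 hours across five concentrations. GI50 marks 50% less growth. TGI is the concentration that stops growth completely.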 Where only a bound is given, the exact number is not on record here.

In the case of `O=c1[nH]c(=O)c2cc(C3CC(O)C(CO)O3)ccc2[nH]1` (centres undefined), the GI50 in the experiment with U251 CNS, in the experiment on RXF 393 renal, in the experiment with NCI/ADR-RES ovarian, in the experiment with SF-295 CNS, with SF-539 CNS and in the experiment with LOX IMVI melanoma was more than 100 µM throughout. Also, the GI50 in the experiment on UACC-62 melanoma, with HS 578T breast and with IGROV1 ovarian was more than 100 µM each time. The TGI in the experiment on U251 CNS, in the experiment with RXF 393 renal, in the experiment on NCI/ADR-RES ovarian, in the experiment with SF-295 CNS, in the experiment on SF-539 CNS and in the experiment with LOX IMVI melanoma was more than 100 µM each time. In addition, the TGI in the experiment with UACC-62 melanoma, in the experiment with HS 578T breast and in the experiment on IGROV1 ovarian was more than 100 µM each time.
`COC(=O)C1=C(C(=O)OC)SC(=C(Cl)C(=S)Nc2ccccc2O)S1`: the GI50 with MALME-3M melanoma is 21.7 µM; in the experiment with U251 CNS it was 12.2 µM; in the experiment on RXF 393 renal it was 11.7 µM; in the experiment with NCI/ADR-RES ovarian it was 14.1 µM; with SF-295 CNS, 6.57 µM; in the experiment on SF-539 CNS it was 15.9 µM. In addition, the results for the GI50 with LOX IMVI melanoma, in the experiment with UACC-62 melanoma and in the experiment with HS 578T breast were 12.9 µM, 8.84 µM and 31.6 µM, respectively. For the same compound, the total growth inhibition concentration (TGI) in the experiment with MALME-3M melanoma was more than 50 µM; with U251 CNS it was 30.5 µM; in the experiment on RXF 393 renal, 29.5 µM; in the experiment with NCI/ADR-RES ovarian, 35.1 µM; in the experiment on SF-295 CNS it was 24.9 µM; in the experiment with SF-539 CNS, 39 µM. Besides, the TGI with LOX IMVI melanoma is 24.5 µM; in the experiment on UACC-62 melanoma, 18.6 µM; with HS 578T breast it was more than 50 µM.
As for `O=Cc1ccccc1B(O)O`, the TGI in the experiment with U251 CNS, in the experiment with RXF 393 renal, in the experiment with NCI/ADR-RES ovarian, in the experiment on SF-295 CNS, with SF-539 CNS and in the experiment on LOX IMVI melanoma was more than 100 µM in each case. For the same compound, the TGI is more than 100 µM in the experiment on UACC-62 melanoma, 49.3 µM with HS 578T breast and more than 100 µM with IGROV1 ovarian.
As to `COc1cccc2c1C(=O)c1c(O)c3c(c(O)c1C2=O)C[C@@](O)(C(=O)CO)C[C@@H]3O[C@H]1C[C@H](N)[C@@H](O)[C@H](C)O1`, the GI50 in the experiment with MALME-3M melanoma is 0.145 µM; in the experiment with RXF 393 renal it was 0.205 µM; in the experiment on SF-295 CNS it was 0.158 µM; with LOX IMVI melanoma it was 0.0826 µM; in the experiment with UACC-62 melanoma, 0.0847 µM; with HS 578T breast, 0.257 µM. Moreover, the GI50 in the experiment with IGROV1 ovarian is 0.175 µM. Further, the TGI in the experiment on MALME-3M melanoma was 0.718 µM; in the experiment with U251 CNS, 16.4 µM; with RXF 393 renal, 1.02 µM; with SF-295 CNS, 1.54 µM; with LOX IMVI melanoma, 2.57 µM; with UACC-62 melanoma it was 0.498 µM. Also, the TGI in the experiment with HS 578T breast came out at 3.3 µM; in the experiment on IGROV1 ovarian, 21.2 µM.
For the compound `c1ccc2cc3[s+]snc3cc2c1`, the TGI with MALME-3M melanoma, in the experiment with U251 CNS, in the experiment on RXF 393 renal, in the experiment with SF-295 CNS, in the experiment on SF-539 CNS and in the experiment with LOX IMVI melanoma was more than 100 µM throughout. Besides, the TGI with UACC-62 melanoma and in the experiment on IGROV1 ovarian was more than 100 µM in each case.
As for `COc1cccc(OCCCN)c1-c1cc(Nc2cnc(C#N)cn2)n[nH]1`, the TGI is 16.1 µM in the experiment on MALME-3M melanoma; 14.4 µM in the experiment on U251 CNS; 0.0616 µM and 0.156 µM in the experiment on RXF 393 renal; 17.3 µM with NCI/ADR-RES ovarian; 13.4 µM in the experiment on SF-295 CNS; 0.0627 µM and 0.12 µM in the experiment on SF-539 CNS. Also, the concentration for total growth inhibition (TGI) in the experiment on LOX IMVI melanoma came out at 9.07 µM; in the experiment on IGROV1 ovarian, 15.6 µM. Further, the GI50 was 0.0759 µM and 0.0569 µM in the experiment on U251 CNS; 0.00496 µM in the experiment with RXF 393 renal; 0.071 µM and 0.054 µM in the experiment with NCI/ADR-RES ovarian; 0.0037 µM with SF-295 CNS; 0.00366 µM with SF-539 CNS; 0.0166 µM and 0.0254 µM with LOX IMVI melanoma. In addition, in the experiment with UACC-62 melanoma, the GI50 was 0.0231 µM.
For the compound `CCCCCCCCCCC(C(O)c1ccccc1)N1CCCCC1` (centres undefined), the GI50 was 1.74 µM with U251 CNS; 1.76 µM with RXF 393 renal; 2.99 µM with NCI/ADR-RES ovarian; 1.83 µM in the experiment with SF-295 CNS; 2.06 µM with SF-539 CNS; 1.67 µM with LOX IMVI melanoma. Also, the GI50 in the experiment with UACC-62 melanoma was 2.01 µM; in the experiment with HS 578T breast it was 2.02 µM; in the experiment with IGROV1 ovarian it was 1.5 µM. Further, the TGI with U251 CNS was found to be 3.46 µM; in the experiment on RXF 393 renal, 3.4 µM; in the experiment on NCI/ADR-RES ovarian it was 10.7 µM; in the experiment with SF-295 CNS, 3.23 µM; in the experiment with SF-539 CNS, 3.84 µM; in the experiment on LOX IMVI melanoma, 3.03 µM. For the same compound, the TGI in the experiment with UACC-62 melanoma is 4.01 µM; in the experiment with HS 578T breast it was 4.52 µM; with IGROV1 ovarian, 3.15 µM.
With `Clc1ccc2nnnn2n1`, the GI50 in the experiment with MALME-3M melanoma is 12.1 µM; with U251 CNS it was 3.97 µM; with RXF 393 renal, 2.75 µM; with NCI/ADR-RES ovarian it was 5.61 µM; in the experiment on SF-295 CNS, 4.05 µM; in the experiment with LOX IMVI melanoma it was 3.64 µM. Moreover, the GI50 was 2.77 µM with UACC-62 melanoma, 21.8 µM in the experiment with HS 578T breast and 4.05 µM in the experiment with IGROV1 ovarian. For the same compound, the TGI in the experiment with MALME-3M melanoma is 31.4 µM; in the experiment on U251 CNS, 22.7 µM; with RXF 393 renal, 8.65 µM; with NCI/ADR-RES ovarian, more than 100 µM; in the experiment on SF-295 CNS it was more than 100 µM; with LOX IMVI melanoma, more than 100 µM. Also, the TGI with UACC-62 melanoma is 27.5 µM; in the experiment with HS 578T breast it was more than 100 µM; in the experiment with IGROV1 ovarian, 50.1 µM.
For the compound `Cc1ccc([N+](=O)[O-])cc1NC(=O)c1cccc([N+](=O)[O-])c1O`, the TGI is 62.7 µM in the experiment on MALME-3M melanoma; more than 100 µM in the experiment on U251 CNS; 27.7 µM with RXF 393 renal; 63.3 µM in the experiment on SF-295 CNS; 54.1 µM in the experiment on SF-539 CNS; more than 100 µM in the experiment on LOX IMVI melanoma. Moreover, the total growth inhibition concentration (TGI) in the experiment on UACC-62 melanoma is 38.1 µM; with IGROV1 ovarian it was 98.6 µM.
Regarding `COc1ccc(C(=O)/C=C/c2ccc3c(c2)OCO3)c(OCc2ccccc2)c1`, the TGI with MALME-3M melanoma, in the experiment on U251 CNS, with RXF 393 renal, with SF-295 CNS, with SF-539 CNS and in the experiment with LOX IMVI melanoma was more than 100 µM each time. Moreover, the TGI with UACC-62 melanoma, with HS 578T breast and in the experiment on IGROV1 ovarian was more than 100 µM in each case.
Take `Cc1[nH]c(=O)n2c(C)nnc2c1C(=O)Nc1cc(Cl)cc(Cl)c1`: the concentration for total growth inhibition (TGI) in the experiment with MALME-3M melanoma was more than 100 µM; in the experiment on U251 CNS, 53.2 µM; with RXF 393 renal, 42 µM; with SF-295 CNS, more than 100 µM; in the experiment with SF-539 CNS, 78.4 µM; with LOX IMVI melanoma it was more than 100 µM. Further, the TGI with UACC-62 melanoma was 41 µM; in the experiment on IGROV1 ovarian it was 82 µM.
